Results from patent publication US11471502B2, “Neuroprotective peptide” (UNIVERSITY COLLEGE CARDIFF C[…], priority 2017, dated 2022).

Columns and labels:
[1] = system: ERK signalling in the striatum; experiment: Single in vivo injection, IHC/immunofluorescence of nuclear and cytoplasmic ERK markers in striatum; set-up: species or system mouse; details: 1 h
Procedure: a) RB5 peptide selectively promoted activation of ERK2. Acute striatal slices either pre-treated with Scramble (SCR) or RB5 peptide (50 μM) and then stimulated 10 minutes with glutamate (GLU) (100 μM) or vehicle were analysed in Western blot (left panel) and probed with anti phospho ERK antibodies (p44^ERK1 and p42^ERK2) and anti ERK1/2 antibody. GAPDH was used as loading control. […] No changes were detected in the total ERK1 and ERK2 levels. GAPDH was used as loading control. […] Mice injected with a single dose of CPP-SCR or CPP-RB5 peptides (20 mg/kg, i.p.) were rapidly perfused 1 h later and brains were dissected and further analysed for IHC and immunofluorescence. Representative photomicrographs of pERK1/2, pMSK, pAch3, pELK1 and c-Fos expression in the striatum. […] Two-way ANOVA Bonferroni post hoc comparison: one black star, p<0.05, two black stars, p<0.01, one white star, p<0.001. p) Dose response curve of RB5 peptide for ERK activation. 200 μm thick striatal slices were freshly prepared from 2-month old mice and transferred into a perfusion chamber for 1 h at 32° C. Slices were pre-treated with different doses of RB5 or scrambled control. After 1 h, slices for each dose was fixed in PFA 4% for 15 min. 18 μm cryo-sections were processed for immunohistochemistry with anti-phospho p44/p42 MAP kinase. Neuronal quantification was performed with ImageJ software by counting the number of phospho-ERK positive cells in each slice. The level of activation is expressed on the Y-axis as arbitrary units (AU). Doses are reported in a logarithmic scale (Log 10) on the X-axis. The EC50 was calculated using GraphPad Prism software.
At the indicated times after drug treatments, animals were anaesthetised and transcardially perfused with ice-cold buffered 4% PFA. Brains were extracted, post-fixed overnight and transferred to 30% buffered sucrose for 24 h. Coronal sections were cut to a 35 μm thickness on a freezing microtome and stored in a cryoprotective solution at −20° C. until processing for immunohistochemistry or immunofluorescence.
1 h after CPP-RB5/CPP-SCR (20 mg/kg, i.p.) mice were anaesthetized and perfused via intracardiac infusion of ice-cold 4% PFA. Brains were rapidly extracted, post-fixed overnight and transferred to 25% buffered sucrose for 24 h. Coronal sections were cut at 30 μm thickness on a freezing microtome and stored in a cryoprotective solution at −20° C. until they were processed for immunohistochemistry. Free-floating sections were incubated with primary antibodies against anti-phospho-p44/42 MAP kinase (Thr202/Tyr204), anti-phospho-Elk-1 (Ser383), anti-phospho-Kv4.2 (Thr607)-R, anti-phospho-MSK-1, anti-phospho-MEK-1, c-Fos and Tyrosine Hydroxylase overnight at 4° C. Sections were then incubated with biotinylated goat anti-rabbit IgG (1:200, Vector Labs) for 2 h. Detection of the bound antibodies was carried out using a standard peroxidase-based method (ABC-kit, Vectastain, Vector Labs), followed by a DAB and H2O2 solution. Quantification of positive neurons were counted from striatum in 2-3 sections per mouse, bilaterally. Sample areas were visualized under a 20× objective in a Leica DM IRB microscope by a blind investigator to condition and counts per region were averaged across the sections using the ImageJ software.

[2] = system: C57BL/6 mice treated with 3-NP; experiment: 3-Nitropropionic acid (3-NP) pharmacological mouse model of Huntington's disease; assay type: in vivo; details: 20 mg/kg i.p. twice a day, 3-NP 50 mg/kg once a day, 7 days
Procedure: Importantly, this reduction resembled physiological condition (RB5 3-NP vs RB5 Saline p=0.85). Mean±SEM, n=10 each experimental group).
Before use, CCP-SCR and CPP-RB5 were diluted in PBS 1× and injected twice a day at 12 hr intervals (20 mg/kg). 3-NP was injected 1 h after peptides once a day for 7 consecutive days (50 mg/kg) in male C57B/6 mice. All drugs were administered by intraperitoneal (i.p.) injection in a volume of 10 ml/kg. The mice were euthanized 1 hr after the last peptide injection and transcardially perfused with buffered 4% PFA, and processed for immunohistochemistry. The DeadEnd Colorimetric TUNEL System (Promega) was used to detect apoptotic cells on tissue sections […] thick. For each animal three consecutive coronal sections were taken, mounted on glass slides and processed for immunohistochemical analysis according to the recommended procedures. For quantification, the number of positive neurons in each section was counted across the dorsolateral region of the striatum of both hemispheres and means values were calculated.
We set up a protocol in which male C57BL/6 mice were injected with CPP-SCR or CPP-RB5 peptides (20 mg/kg, i.p.) twice a day (every 12 h) for 7 days and 1 h after peptides injection they received one injection of 3-NP (50 mg/kg). At the end of treatment, animals were perfused and brains were prepared as for immunohistochemistry.

| Compound | nuclear ERK-dependent signalling and gene transcription (pMSK, pAcH3, pELK, c-Fos) ([1]; 20 mg/kg i.p.) | phosphorylation of the cytoplasmic markers (pMEK-1, pVGK+, pS6) ([1]; 20 mg/kg i.p.) | striatal ERK phosphorylation (pERK1/2) ([1]; 20 mg/kg i.p.) | Caspase-3 levels (striatum) [2] | apoptotic levels (TUNEL, striatum) [2] | cytoplasmic signalling measured by ribosomal S6 phosphorylation ([1]; 20 mg/kg) | phosphorylation of voltage-gated potassium channel (pKv4.2) and MEK-1 ([1]; 20 mg/kg, vs CPP-SCR) |
| --- | --- | --- | --- | --- | --- | --- | --- |
| CSCC[C@H](NC(=O)[C@H](CCC(=O)O)NC(=O)[C@@H](NC(=O)[C@H](CCC(=O)O)NC(=O)CNC(=O)[C@@H]1CCCN1C(=O)[C@@H](NC(=O)CNC(=O)[C@@H]1CCCN1C(=O)CNC(=O)[C@@H](NC(=O)CNC(=O)[C@H](CCC(=O)O)NC(=O)[C@@H](NC(=O)[C@H](CCCNC(=N)N)NC(=O)[C@H](CCCNC(=N)N)NC(=O)[C@@H]1CCCN1C(=O)[C@H](CCC(=O)O)NC(=O)CNC(=O)CNC(=O)CNC(=O)CNC(=O)CNC(=O)[C@H](CCC(N)=O)NC(=O)[C@@H]1CCCN1C(=O)[C@@H]1CCCN1C(=O)[C@H](CCCNC(=N)N)NC(=O)[C@H](CCCNC(=N)N)NC(=O)[C@H](CCCNC(=N)N)NC(=O)[C@H](CCC(N)=O)NC(=O)[C@H](CCCNC(=N)N)NC(=O)[C@H](CCCNC(=N)N)NC(=O)[C@H](CCCCN)NC(=O)[C@H](CCCCN)NC(=O)[C@H](CCCNC(=N)N)NC(=O)CNC(C)=O)[C@@H](C)O)C(C)C)C(C)C)C(C)C)C(=O)N[C@H](C(=O)N[C@@H](CCCCN)C(=O)NCC(=O)N[C@@H](CCC(N)=O)C(=O)N1CCC[C@H]1C(=O)N[C@@H](Cc1ccccc1)C(=O)N[C@@H](CC(=O)O)C(=O)N[C@@H](C(=O)O)C(C)C)C(C)C [RB5] | selective activation | did not influence | enhanced | diminished Caspase-3 levels | significant reduction of apoptotic levels |  |  |
| GRKKRRQRRRPPQGGGGGEPRRTEGVGPGVPGEVEMVKGQPFDV (listed as Homo sapiens) [CPP-RB5] | significantly increased |  | significantly enhanced | reduce pre-apoptotic levels of Caspase 3 marker to control levels | reducing apoptosis to control levels | at a lesser extent reduced | comparable between the two treatments |
